# Reference: patent US20210317092A1 (BAYER PHARMA AKTIENGESELLSCHAFT, priority 2016, published 2021)
# Target: T1, human Bradykinin B1 receptor (Homo sapiens, UniProt P46663)
# T1 construct: host or cells: CHO-K1
# T1 sequence (P46663 1-353): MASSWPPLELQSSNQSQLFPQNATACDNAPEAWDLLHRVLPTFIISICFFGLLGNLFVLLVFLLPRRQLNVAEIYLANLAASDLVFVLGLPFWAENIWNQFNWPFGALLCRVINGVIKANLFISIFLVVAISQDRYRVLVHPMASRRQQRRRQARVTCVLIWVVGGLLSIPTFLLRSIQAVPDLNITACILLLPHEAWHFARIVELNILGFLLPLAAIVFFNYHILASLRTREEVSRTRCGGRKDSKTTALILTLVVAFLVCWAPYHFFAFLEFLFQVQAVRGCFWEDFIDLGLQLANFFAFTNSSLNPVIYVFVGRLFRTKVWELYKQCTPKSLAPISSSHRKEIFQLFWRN
# Assay: Calcium flux Assay (FLIPR) with recombinant CHO-K1 cells expressing human Bradykinin B1 receptor, in presence (hB1 IC50) or absence (hB1 free IC50) of 0.1% BSA
# Assay type: cell-based
# Conditions: in absence of 0.1% BSA, read-out: hB1 free IC50
row,IC50,SMILES
1,23.7 nM,"Cn1ncc2cc(-c3ccc(NC(=O)C4(c5cccc(Cl)c5)CC4)cc3-c3nnn[nH]3)ccc21 [Example 339, 1-(3-chlorophenyl)-N-[4-(1-methyl-1H-indazol-5-yl)-3-(1H-tetrazol-5-yll)phenyl]cyclopro-panecarboxa-mide]"
2,87.3 nM,"O=C(Nc1ccc(-c2ccc(Cl)nc2)c(-c2nnn[nH]2)c1)C1(c2cccc(Cl)c2)CC1 [Example 341, 1-(3-chlorophenyl)-N-[4-(6-chloropyridin-3-yl)-3-(1H-tetrazol-5-yl)phenyl]cyclopro-panecarboxa-mide]"
3,590 nM,"O=C(Nc1ccc(-n2cc(C(F)(F)F)cn2)c(-c2nnn[nH]2)c1)C1(c2cccc(Cl)c2)CC1 [Example 349, 1-(3-Chlorophenyl)-N-{3-(1H-tetrazol-5-yl)-4-[4-(trifluoromethyl)-1H-pyrazol-1-yl]phenyl}cyclopro-panecarboxa-mide]"
4,804 nM,"O=C(Nc1ccc(-n2cc(C(F)F)cn2)c(-c2nnn[nH]2)c1)C1(c2cccc(Cl)c2)CC1 [Example 350, 1-(3-Chlorophenyl)-N-{4-[4-(difluoromethyl)-1H-pyrazol-1-yl]-3-(1H-tetrazol-5-yl)phenyl}cyclopro-panecarboxa-mide]"
5,1200 nM,"O=C(Nc1ccc(-n2cnc(C(F)(F)F)c2)c(-c2nnn[nH]2)c1)C1(c2cccc(Cl)c2)CC1 [Example 352, 1-(3-Chlorophenyl)-N-{3-(1H-tetrazol-5-yl)-4-[4-(trifluoromethyl)-1H-imidazol-1-yl]phenyl}cyclopro-panecarboxa-mide]"
6,1880 nM,"O=C(Nc1ccc(-n2ccc(C(F)(F)F)n2)c(-c2nnn[nH]2)c1)C1(c2cccc(Cl)c2)CC1 [Example 354, 1-(3-Chlorophenyl)-N-{3-(1H-tetrazol-5-yl)-4-[3-(trifluoromethyl)-1H-pyrazol-1-yl]phenyl}cyclopro-panecarboxa-mide]"
7,1880 nM,"O=C(Nc1ccc(-n2ccc(C(F)(F)F)n2)c(-c2nnn[nH]2)c1)C1(c2ccc(F)c(F)c2)CC1 [Example 355, 1-(3,4-Difluorophenyl)-N-{3-(1H-tetrazol-5-yl)-4-[3-(trifluoromethyl)-1H-pyrazol-1-yl]phenyl}cyclopro-panecarboxa-mide]"
8,44.8 nM,"O=C(Nc1ccc(-n2cnc(C3CCC3)n2)c(-c2nnn[nH]2)c1)C1(c2cccc(Cl)c2)CC1 [Example 357, 1-(3-chlorophenyl)-N-[4-(3-cyclobutyl-1H-1,2,4-triazol-1-yl)-3-(1H-tetrazol-5-yl)phenyl]cyclopro-panecarboxa-mide]"
9,2970 nM,"O=C(Nc1ccc(-n2cnc(C(F)(F)F)n2)c(-c2nnn[nH]2)c1)C1(c2ccc(F)c(F)c2)CC1 [Example 358, 1-(3,4-difluorophenyl)-N-{3-(1H-tetrazol-5-yl)-4-[3-(trifluoromethyl)-1H-1,2,4-triazol-1-yl]phenyl}cyclopro-panecarboxa-mide]"
10,676 nM,"Cc1nc(C(F)(F)F)nn1-c1ccc(NC(=O)C2(c3cccc(Cl)c3)CC2)cc1-c1nnn[nH]1 [Example 359, 1-(3-chlorophenyl)-N-{4-[5-methyl-3-(trifluoromethyl)-1H-1,2,4-triazol-1-yl]-3-(1H-tetrazol-5-yl)phenyl}cyclopro-panecarboxa-mide]"

# More lines, now with the values behind:
row,SMILES,IC50
1,"O=C(Nc1ccc(-n2cc(C(F)(F)F)cn2)c(-c2nnn[nH]2)c1)C1(c2ccc(C(F)(F)F)cc2F)CC1 [Example 345, 1-[2-Fluoro-4-(trifluoromethyl)phenyl]-N-{3-(1H-tetrazol-5-yl)-4-[4-(trifluoromethyl)-1H-pyrazol-1-yl]phenyl}cyclopropanecarboxamide]",28.5 nM
2,"O=C(Nc1ccc(-n2cc(C(F)F)cn2)c(-c2nnn[nH]2)c1)C1(c2ccc(C(F)(F)F)cc2F)CC1 [Example 346, N-{4-[4-(Difluoromethyl)-1H-pyrazol-1-yl]-3-(1H-tetrazol-5-yl)phenyl}-1-[2-fluoro-4-(trifluoromethyl)phenyl]cyclopro-panecarboxamide]",65.9 nM
3,"O=C(Nc1ccc(-n2cnc(C(F)(F)F)c2)c(-c2nnn[nH]2)c1)C1(c2ccc(C(F)(F)F)cc2F)CC1 [Example 347, 1-[2-Fluoro-4-(trifluoromethyl)phenyl]-N-{3-(1H-tetrazol-5-yl)-4-[4-(trifluoromethyl)-1H-imidazol-1-yl]phenyl}cyclopro-panecarboxa-mide]",96.6 nM
4,"O=C(Nc1ccc(-n2ccc(C(F)(F)F)n2)c(-c2nnn[nH]2)c1)C1(c2ccc(C(F)(F)F)cc2F)CC1 [Example 348, 1-[2-Fluoro-4-(trifluoromethyl)phenyl]-N-{3-(1H-tetrazol-5-yl)-4-[3-(trifluoromethyl)-1H-pyrazol-1-yl]phenyl}cyclopro-panecarboxa-mide]",122 nM
5,"O=C(Nc1ccc(-n2cc(C(F)(F)F)cn2)c(-c2nnn[nH]2)c1)C1(c2ccc(F)c(F)c2)CC1 [Example 351, 1-(3,4-Difluorophenyl)-N-{3-(1H-tetrazol-5-yl)-4-[4-(trifluoromethyl)-1H-pyrazol-1-yl]phenyl}cyclopro-panecarboxa-mide]",1060 nM
6,"O=C(Nc1ccc(-n2cc(C(F)F)cn2)c(-c2nnn[nH]2)c1)C1(c2ccc(F)c(F)c2)CC1 [Example 353, N-{4-[4-(Difluoromethyl)-1H-pyrazol-1-yl]-3-(1H-tetrazol-5-yl)phenyl}-1-(3,4-difluorophenyl)cy-clopropanecar-boxamide]",1210 nM
7,"O=C(Nc1ccc(-n2cnc(C(F)(F)F)c2)c(-c2nnn[nH]2)c1)C1(c2ccc(F)c(F)c2)CC1 [Example 356, 1-(3,4-Difluorophenyl)-N-{3-(1H-tetrazol-5-yl)-4-[4-(trifluoromethyl)-1H-imidazol-1-yl]phenyl}cyclopro-panecarboxa-mide]",2350 nM
8,"Cc1nc(C(F)(F)F)nn1-c1ccc(NC(=O)C2(c3ccc(F)c(F)c3)CC2)cc1-c1nnn[nH]1 [Example 360, 1-(3,4-difluorophenyl)-N-{4-[5-methyl-3-(trifluoromethyl)-1H-1,2,4-triazol-1-yl]-3-(1H-tetrazol-5-yl)phenyl}cyclopro-panecarboxa-mide]",1700 nM
9,"O=C(Nc1ccc(-n2cc(C(F)(F)F)nn2)c(-c2nnn[nH]2)c1)C1(c2ccc(C(F)(F)F)cc2F)CC1 [Example 361, 1-[2-fluoro-4-(trifluoromethyl)phenyl]-N-{3-(1H-tetrazol-5-yl)-4-[4-(trifluoromethyl)-1H-1,2,3-triazol-1-yl]phenyl}cyclopro-panecarboxa-mide]",419 nM
10,"O=C(Nc1ccc(-n2cnc(C(F)(F)F)c2)c(-c2nnn[nH]2)c1)C1(c2ccc(OC(F)(F)F)cc2F)CC1 [Example 362, 1-[2-Fluoro-4-(trifluoromethoxy)phenyl]-N-{3-(1H-tetrazol-5-yl)-4-[4-(trifluoromethyl)-1H-imidazol-1-yl]phenyl}cyclopro-panecarboxa-mide]",26.4 nM
11,"O=C(Nc1ccc(-n2ccc(C(F)(F)F)n2)c(-c2nnn[nH]2)c1)C1(c2ccc(OC(F)(F)F)cc2F)CC1 [Example 363, 1-[2-Fluoro-4-(trifluoromethoxy)phenyl]-N-{3-(1H-tetrazol-5-yl)-4-[3-(trifluoromethyl)-1H-pyrazol-1-yl]phenyl}cyclopro-panecarboxa-mide]",37.1 nM
12,"O=C(Nc1ccc(-n2cc(C(F)(F)F)cn2)c(-c2nnn[nH]2)c1)C1(c2ccc(OC(F)(F)F)cc2F)CC1 [Example 364, 1-[2-fluoro-4-(trifluoromethoxy)phenyl]-N-{3-(1H-tetrazol-5-yl)-4-[4-(trifluoromethyl)-1H-pyrazol-1-yl]phenyl}cyclopro-panecarboxa-mide]",12.7 nM
13,"Cc1nc(C(F)(F)F)cn1-c1ccc(NC(=O)C2(c3ccc(OC(F)(F)F)cc3F)CC2)cc1-c1nnn[nH]1 [Example 365, 1-[2-Fluoro-4-(trifluoromethoxy)phenyl]-N-{4-[2-methyl-4-(trifluoromethyl)-1H-imidazol-1-yl]-3-(1H-tetrazol-5-yl)phenyl}cyclopro-panecarboxa-mide]",535 nM
14,"Cc1ccc(C2(C(=O)Nc3ccc(-n4ccc(C(F)(F)F)n4)c(-c4nnn[nH]4)c3)CC2)c(F)c1 [Example 366, 1-(2-Fluoro-4-methylphenyl)-N-{3-(1H-tetrazol-5-yl)-4-[3-(trifluoromethyl)-1H-pyrazol-1-yl]phenyl}cyclopro-panecarboxa-mide]",94.2 nM
15,"Cc1ccc(C2(C(=O)Nc3ccc(-n4cnc(C(F)(F)F)c4)c(-c4nnn[nH]4)c3)CC2)c(F)c1 [Example 367, 1-(2-Fluoro-4-methylphenyl)-N-{3-(1H-tetrazol-5-yl)-4-[4-(trifluoromethyl)-1H-imidazol-1-yl]phenyl}cyclopro-panecarboxa-mide]",61.2 nM
16,"Cc1ccc(C2(C(=O)Nc3ccc(-n4cc(C(F)(F)F)cn4)c(-c4nnn[nH]4)c3)CC2)c(F)c1 [Example 368, 1-(2-Fluoro-4-methylphenyl)-N-{3-(1H-tetrazol-5-yl)-4-[4-(trifluoromethyl)-1H-pyrazol-1-yl]phenyl}cyclopro-panecarboxa-mide]",26 nM

# Same assay, conditions: in presence of 0.1% BSA, read-out: hB1 IC50
row,IC50,SMILES
1,2030 nM,"N#Cc1cc(F)cc(-c2ccc(NC(=O)C3(c4cccc(Cl)c4)CC3)cc2-c2nnn[nH]2)c1 [Example 337, 1-(3-chlorophenyl)-N-[3′-cyano-5′-fluoro-2-(1H-tetrazol-5-yl)biphenyl-4-yl]cyclopropane carboxamide]"
2,46.7 nM,"Cn1ncc2cc(-c3ccc(NC(=O)C4(c5cccc(Cl)c5)CC4)cc3-c3nnn[nH]3)ccc21 [Example 339, 1-(3-chlorophenyl)-N-[4-(1-methyl-1H-indazol-5-yl)-3-(1H-tetrazol-5-yll)phenyl]cyclopro-panecarboxa-mide]"
3,115 nM,"O=C(Nc1ccc(-c2ccc(Cl)nc2)c(-c2nnn[nH]2)c1)C1(c2cccc(Cl)c2)CC1 [Example 341, 1-(3-chlorophenyl)-N-[4-(6-chloropyridin-3-yl)-3-(1H-tetrazol-5-yl)phenyl]cyclopro-panecarboxa-mide]"
4,1770 nM,"CCOc1ccc(-c2cc(F)c(NC(=O)C3(c4cccc(Cl)c4)CC3)cc2-c2nnn[nH]2)cn1 [Example 342, 1-(3-chlorophenyl)-N-[4-(6-ethoxypyridin-3-yl)-2-fluoro-5-(1H-tetrazol-5-yl)phenyl]cyclopro-panecarboxa-mide]"
